Here are results for 3 molecules from US20210052600A1, “THERAPEUTIC AGENTS FOR STRESS URINARY INCONTINENCE AND INCOTINENCE OF FECES” (Takeda Pharmaceutical Company Limited, priority 2017, published 2021).

Data set [1] can be described thus: Plasma concentrations in rats 30 minutes after oral administration (effective plasma concentration at LPP10). The settings on record: rat.
Experimental: Ten female rats of SD strain were anesthetized with isoflurane. In order to secure the same conditions as those for drug-administered animals, their spinal cord was transected at the T8-T9 (the eighth thoracic cord—the ninth thoracic cord) level. Then, a cannula for blood collection was inserted into the femoral artery. […] These drugs were each dissolved in 0.5% MC. Thirty minutes after oral administration, up to 250 μL of blood was collected from the femoral artery or the tail vein and treated with heparin. The collected blood was immediately cooled on ice and centrifuged under conditions involving 3,000 rpm and 4° C. for 10 minutes to obtain plasma. The plasma samples were stored under conditions of −80° C. until drug quantification.
After thawing of the plasma samples, the internal standard compound was added thereto, and the mixture was then centrifuged under conditions of 5,250 rpm. The drug contained in 60 μL of the supernatant was quantified by LC-MS/MS.
Data set [2] can be described thus: Comparison of plasma concentrations for urethra-closing effect and anti-obesity effect (analysis of Examples 1-9 and literature).
For data set [3] the following is noted: cited from earlier work.
For data set [4], the system named is urethra-closing reflex response. Put plainly: Urethra-closing reflex response induced by intravesical pressure rise in rats. It counts as in vivo, rat. The settings on record: 20 mg/kg i.d., mean ± SEM.
Experimental: Thirty-two female rats of SD strain were used. The rats were anesthetized with urethane. Isoflurane inhalation was added during the surgery, if necessary. Their spinal cord was transected at the T8-T9 (the eighth thoracic cord—the ninth thoracic cord) level to eliminate the reflex voiding and to inhibit the transition from the urine storage phase to the voiding phase in the voiding cycle. After opening of the abdomen, the bladder neck was ligated with suture, and a catheter (PE-100) was inserted into the bladder. The bladder catheter was connected to a pressure transducer and a saline-containing reservoir via three-way stopcocks. A microtip transducer catheter was inserted from the urethral orifice toward the bladder so that its transducer was inserted into the urethra. Local change in pressure within the urethra (intraurethral pressure) was recorded via an electric signal amplifier and an analog-to-digital converter. […] Then, the reservoir was brought back to the original position to adjust the intravesical pressure to its baseline. Such change in intraurethral pressure induced by intravesical pressure rise was repeatedly measured, and the mean value from the last 2 trials was used as a Pre value. The vehicle used was 0.5% MC. […] Thirty minutes after administration, the change in intraurethral pressure induced by intravesical pressure rise was measured again and used as a Post value. The average value before intravesical pressure rise was subtracted from the average value during intravesical pressure rise, and the subtracted value was used as urethra-closing reflex response. The ratio of the Post value to the Pre value was calculated.
The test system of data set [5] is urethral resistance. Briefly: Urethral resistance (LPP) during intravesical pressure rise by electrical stimulation of rat abdominal muscle. It counts as in vivo. The settings on record: mean ± SEM; for LPP Post: 30 minutes after administration; for LPP Increase: Post minus Pre; for LPP Pre: before administration.
Experimental: Fifty six female rats of Sprague-Dawley strain (hereinafter, referred to as “SD strain”) were used. The rats were anesthetized with urethane, and their spinal cord was transected at the T8-T9 (the eighth thoracic cord—the ninth thoracic cord) level for the elimination of reflex voiding. Isoflurane inhalation was added, if necessary. After opening of the abdomen, a catheter (PE-100) was inserted into the bladder. In order to secure reduced urethral resistance, unilateral nerve to iliococcygeus and pubococcygeus muscles was transected. For intraduodenal administration, another catheter (PE-50) was inserted into the duodenum in advance. The abdominal muscle and skin were each closed with sutures. Two (right and left) sites of abdominal skin near the diaphragm were cut to expose abdominal muscle. The bladder was emptied through the catheter, followed by the injection of 0.2 to 0.3 mL of 0.1% Evans blue solution. Change in intravesical pressure was recorded using the bladder catheter via a pressure transducer, an electric signal amplifier, and an analog-to-digital converter. While change in intravesical pressure was recorded, the presence or absence of fluid leakage from the urethral orifice was observed under the electrical stimulation of the exposed abdominal muscle using an electrical stimulator and an isolator. […] The peak of the intravesical pressure during the stimulation of the abdominal muscle was measured, and the lowest pressure at which the fluid leakage was observed among the trials was defined as leak point pressure (hereinafter, referred to as “LPP”) for the electrical abdominal muscle stimulation method and used as an index for urethral resistance. Each drug was evaluated for its effect by comparing LPP before drug administration with that after drug administration. […] The drugs were suspended in 0.5% methylcellulose solution (MC). […] LPP was measured again 30 minutes after administration. Regarding change in LPP before and after drug administration, the differences between the mean values of the drug-treated and vehicle groups were analyzed by the one-tailed Williams' test.
In data set [6] the test system is urethral resistance. Put plainly: Rat urethral resistance (LPP) measured by high speed infusion of saline into the bladder. It counts as in vivo. The settings on record: mean ± SEM; for LPP Post: 30 minutes after administration; for LPP Increase: Post minus Pre; for LPP Pre: before administration.
Text: The rats were anesthetized with isoflurane. Their spinal cord was transected at the T8-T9 (the eighth thoracic cord—the ninth thoracic cord) level. After opening of the bladder dome, two polyethylene tubes (PE-100) were inserted into the bladder. The incised portion of the bladder was closed with sutures, and the other incisions were also closed. The rats were placed in Bollman cages. The catheter for intravesical pressure measurement was connected to a pressure transducer, while the catheter for saline filling was connected to a syringe filled with Evans Blue-dyed saline. Change in intravesical pressure was recorded using the pressure transducer via an electric signal amplifier and an analog-to-digital converter. After recovery of the animals from anesthesia, the intravesical pressure measurement was started, and saline was infused at a speed of 0.1 mL/sec into the bladder using an infusion pump. The infusion was stopped when the leakage of the saline from the urethral orifice was observed. Immediately thereafter, the bladder was emptied by releasing the pressure. In this operation, the peak of recorded intravesical pressure during the saline infusion was used as LPP in this Example. This measurement was repeated, and the average LPP from the last three measurements was used as the LPP value of the trial. The mean from 2 such trials was used as a Pre value. 0.5% MC was used as the vehicle. […] The difference in LPP from the Pre value (increased amount of LPP) was calculated. Regarding change in LPP before and after drug administration, the differences between the mean values of the drug-treated and vehicle-treated groups were analyzed by the one-tailed Williams' test.
The subject of data set [7] is urethra-closing response. Put plainly: MT (threshold inducing urethra-closing response) under transcranial magnetic stimulation in healthy female volunteers. It counts as in vivo, human. The settings on record: for MT of the urethra-closing response in response to TMS, Mean / Rate of change from baseline of MT of the urethra-closing response in response to TMS, Mean: 40 mg capsule single oral dose.
Experimental: The test subjects were healthy female volunteers having a body weight of at least 45 kg (average: 50.91 kg, standard deviation: 3.346) and a BMI value of 18.5 kg/m^2 to 25.0 kg/m^2 (average: 19.57 kg/m^2, standard deviation: 0.929).
A washout period of at least 7 days was provided between the treatments.
A capsule containing 40 mg of duloxetine was orally administered as duloxetine together with water. A placebo capsule containing saccharose and spherical starch granules was orally administered as a placebo for duloxetine together with water.
Specifically, during the TMS, the output of a magnetic stimulator (Magstim Rapid Square, manufactured by Magstim Co., Ltd.) was increased by 5% each time using 110 mm double cone coil, and the minimum output at which urethra-closing response occurred abruptly was determined and used as MT (%). The urethra-closing response was detected by measuring contractile responses within the urethra. The contractile response within the urethra was measured using Duet Logic G2 (manufactured by Mediwatch Ltd.) and UniTip (manufactured by Unisensor AG). MT was measured again after administration of each drug, and the rate of change (%) from the baseline was calculated. The rate of change was determined by dividing MT after administration of each drug by MT before administration.

The test system of data set [8] is urethral resistance increasing effect of Compound A′. Put plainly: Influence of antagonists (SB 242084, methiothepin) on urethral resistance increasing effect of Compound A′ in rats. It counts as in vivo, rat. The settings on record: mean ± SEM; for LPP Increase: Post minus Pre; for LPP Pre: before administration. Here is the method:
Ninety female rats of SD strain were used. […] Isoflurane inhalation was added during the surgery, if necessary. In the experiment with intrathecal administration, the dura mater was exposed by laminectomy and then partially opened by incision, through which a catheter (PE-10) filled with saline was then implanted at the level of the L6-S1 site, followed by the closing of the incision. After opening of the abdomen, a catheter (PE-90) was inserted into the bladder. In order to secure reduced urethral resistance, unilateral nerve to iliococcygeus and pubococcygeus muscles was transected. For intraduodenal administration, another catheter (PE-50) was inserted into the duodenum in advance. The abdominal muscle and skin were each closed with sutures. Two (right and left) sites of abdominal skin near the diaphragm were cut to expose abdominal muscle. The bladder was emptied through the catheter, followed by the injection of 0.2 to 0.3 mL of Evans blue solution. Change in intravesical pressure was recorded using the bladder catheter via a pressure transducer, an electric signal amplifier, and an analog-to-digital converter. While change in intravesical pressure was recorded, the presence or absence of fluid leakage from the urethral orifice was observed under the electrical stimulation of the exposed abdominal muscle using an electrical stimulator and an isolator. […] The peak of the intravesical pressure during the stimulation of the abdominal muscle was measured, and the lowest pressure at which the fluid leakage was observed among the trials was defined as LPP for the electrical abdominal muscle stimulation method. In order to examine whether the urethral resistance increasing effect of Compound A′ is based on its agonistic potency on 5-HT2C receptors, SB 242084, methiothepin, or a vehicle was intravenously administered, and Compound A′ or a vehicle was intraduodenally administered 5 minutes later. SB 242084 was dissolved in a mixed solution of N,N-dimethylacetamide and polyethylene glycol 400 (1:1) and administered at 0.03 mg/0.5 mL/kg, 0.1 mg/0.5 mL/kg and 0.3 mg/0.5 mL/kg. Methiothepin was dissolved in saline and administered at 0.03 mg/0.5 mL/kg. 0.1 mg/0.5 mL/kg and 0.3 mg/0.5 mL/kg. Compound A′ was suspended in 0.5% MC and administered at 3 mg/mL/kg. LPP was measured again 30 minutes after Compound A′ administration. In order to examine where Compound A′ works in the body to increase urethral resistance, the blocking of the effect of Compound A′ was confirmed by blocking the functions of Compound A′ by giving methiothepin at a particular site in the body. Particularly, in the experiment with intrathecal administration, methiothepin or a vehicle was intrathecally administered, and Compound A′ or a vehicle was intraduodenally administered 5 minutes later. Methiothepin was dissolved in saline and 20 μL of the obtained solution was administered. Compound A′ was suspended in 0.5% MC and administered at 3 mg/mL/kg. LPP was measured again 30 minutes after Compound A′ administration.
Regarding change in LPP before and after drug administration, the differences between the mean values of the Compound A′-treated and vehicle-treated groups were analyzed by the Student's t test or the Welch's test. In order to analyze the influence of the antagonists on the effect of Compound A′, the differences between the mean values of the SB 242084- or methiothepin- and Compound A′-administered group and the vehicle- and Compound A′-administered group were analyzed by the one-tailed Williams' test.

Where [9] appears, read: methiothepin 10 μg intrathecal + Compound A′ 3 mg/kg i.d.
Where [10] appears, read: methiothepin 30 μg intrathecal + Compound A′ 3 mg/kg i.d.
[11] abbreviates: methiothepin 0.03 mg/kg i.v. + Compound A′ 3 mg/kg i.d.
The mark [12] stands for this setting: methiothepin 100 μg intrathecal + Compound A′ 0 mg/kg i.d.
[13] abbreviates: methiothepin 100 μg intrathecal + Compound A′ 3 mg/kg i.d.
[14] abbreviates: methiothepin 0.1 mg/kg i.v. + Compound A′ 3 mg/kg i.d.
Where [15] appears, read: methiothepin 0.3 mg/kg i.v. + Compound A′ 0 mg/kg i.d.
Setting [16] is: methiothepin 0.3 mg/kg i.v. + Compound A′ 3 mg/kg i.d.

Counter-ions that a name gives are not always drawn. Like-named read-outs stand apart in the source and are kept apart here.

Regarding `C[C@H]1CNCCc2ccc(Cl)cc21` [Compound B, (R)-8-chloro-1-methyl-2,3,4,5-tetrahydro-1H-3-benzazepine], in data set [1] (female, SD, plasma, po, 4 mg/kg), the concentration at 30 min amounted to 32.9 ± 18 ng/mL. Moreover, the “plasma concentration at LPP10” value in data set [1] (measured concentration multiplied by ratio between dosage used and LPP10) is recorded as 9.9 ng/mL. Also, the “plasma concentration estimated to show sufficient effects on urethra-closing function in humans” value in data set [2] (second analysis: 14-fold lower than 43 ng/mL) is reported as “around 3 ng/mL”. Besides, the “average plasma concentration in a day (steady state) giving a body weight lowering effect greater than placebo by 3.8% in humans” value in data set [3] (10 mg b.i.d. (launched dose), free form) was 43 ng/mL. Moreover, the “average plasma concentration in a day (steady state) giving a body weight lowering effect greater than placebo by 2.6% in humans” value in data set [3] (10 mg q.d., free form) is 24 ng/mL. Moreover, the blood concentration is reported as 39 ng/mL in data set [3] (after a single administration of a sustained release formulation containing 20 mg) and 74 ng/mL in data set [3] (sustained release formulation containing 20 mg once daily). In data set [3] (launched dose 10 mg bid), the “plasma concentration Cmin” value was 26 ng/mL.
Turning to `CNCC[C@H](Oc1cccc2ccccc12)c1cccs1` [Duloxetine, duloxetine hydrochloride], the “Urethra-closing reflex response Post” value in data set [4] (30 minutes after administration, intravesical pressure rise by 50 cm H2O) amounted to 8.66 ± 1.34 cmH2O. Besides, the “Urethra-closing reflex response Pre” value in data set [4] (before administration, intravesical pressure rise by 50 cm H2O) is 4.88 ± 0.86 cmH2O. The “Urethra-closing reflex response Ratio (Post/Pr)” value in data set [4] (ratio of Post value to Pre value) came out at 2.00 ± 0.28. Also, the “LPP Post” value is reported as 38.3 ± 2.7 cmH2O in data set [5] (5 mg/kg i.d.); 39.1 ± 2.9 cmH2O in data set [5] (10 mg/kg i.d.); 46.6 ± 5.7 cmH2O in data set [5] (20 mg/kg i.d.); 64.1 ± 5.5 cmH2O in data set [6] (5 mg/kg p.o.); 67.6 ± 3.5 cmH2O in data set [6] (10 mg/kg p.o.); 69.8 ± 4.0 cmH2O in data set [6] (20 mg/kg p.o.). The “LPP Post” value in data set [6] (40 mg/kg p.o.) came out at 73.3 ± 5.3 cmH2O. Moreover, the “LPP Increase” value is listed as 1.7 ± 1.4 cmH2O in data set [5] (5 mg/kg i.d.); 3.7 ± 2.3 cmH2O in data set [5] (10 mg/kg i.d.); 9.7 ± 3.5 cmH2O in data set [5] (20 mg/kg i.d.); 4.2 ± 1.7 cmH2O in data set [6] (5 mg/kg p.o.); 7.7 ± 2.2 cmH2O in data set [6] (10 mg/kg p.o.); 11.9 ± 3.7 cmH2O in data set [6] (20 mg/kg p.o.). In addition, the “LPP Increase” value in data set [6] (40 mg/kg p.o.) is on record as 13.1 ± 2.9 cmH2O. The “LPP Pre” value stood at 36.6 ± 3.0 cmH2O in data set [5] (5 mg/kg i.d.); 35.3 ± 3.0 cmH2O in data set [5] (10 mg/kg i.d.); 36.9 ± 2.8 cmH2O in data set [5] (20 mg/kg i.d.); 59.9 ± 5.1 cmH2O in data set [6] (5 mg/kg p.o.); 59.8 ± 3.8 cmH2O in data set [6] (10 mg/kg p.o.); 57.9 ± 2.7 cmH2O in data set [6] (20 mg/kg p.o.). The “LPP Pre” value in data set [6] (40 mg/kg p.o.) was determined as 60.2 ± 3.1 cmH2O. Besides, the “maximal urethral resistance increasing effect (LPP elevation) in rats” value in data set [2] (summary of Examples 2 and 5) is listed as “around 10 cmH2O”. In addition, the “MT of the urethra-closing response in response to TMS, Mean” value stood at 67.4% in data set [7] (0.5 hr), 62.0% in data set [7] (2 hr), 56.4% in data set [7] (6 hr) and 67.8% in data set [7] (Predose). Further, the results for the “Rate of change from baseline of MT of the urethra-closing response in response to TMS, Mean” value in data set [7] (0.5 hr), in data set [7] (2 hr) and in data set [7] (6 hr) were −0.4%, −5.9% and −11.8%, respectively. Also, in data set [7] (40 mg group, at 6 hours post dose), the “maximum change from baseline in MT in response to TMS” value is reported as −11.8%.
On to `CSc1ccc2c(c1)C(N1CCN(C)CC1)Cc1ccccc1S2.O=C(O)/C=C\C(=O)O` (stereo not shown) [methiothepin, methiothepin maleate], for which the “LPP Post” value was determined as 69.4 ± 10.4 cmH2O in data set [8] (methiothepin 10 μg intrathecal + Compound A′ 3 mg/kg i.d., 30 minutes after Compound A′); 52.1 ± 8.6 cmH2O in data set [8] (methiothepin 30 μg intrathecal + Compound A′ 3 mg/kg i.d., 30 minutes after Compound A′); 40.5 ± 3.2 cmH2O in data set [8] (methiothepin 100 μg intrathecal + Compound A′ 0 mg/kg i.d., 30 minutes after i.d. administration); 45.9 ± 5.5 cmH2O in data set [8] (methiothepin 100 μg intrathecal + Compound A′ 3 mg/kg i.d., 30 minutes after Compound A′); 59.9 ± 3.7 cmH2O in data set [8] (methiothepin 0.1 mg/kg i.v. + Compound A′ 3 mg/kg i.d., 30 minutes after Compound A′); 44.0 ± 7.1 cmH2O in data set [8] (methiothepin 0.3 mg/kg i.v. + Compound A′ 0 mg/kg i.d., 30 minutes after i.d. administration). In data set [8] (methiothepin 0.3 mg/kg i.v. + Compound A′ 3 mg/kg i.d., 30 minutes after Compound A′), the “LPP Post” value is recorded as 40.6 ± 4.9 cmH2O. The “LPP Increase” value in data set [8] (setting [9]) is 35.3 ± 9.8 cmH2O; in data set [8] (setting [10]), 11.1 ± 6.5 cmH2O; in data set [8] (setting [11]), 17.9 ± 4.3 cmH2O; in data set [8] (setting [12]), −5.3 ± 3.0 cmH2O; in data set [8] (setting [13]), 5.6 ± 3.5 cmH2O; in data set [8] (setting [14]) it was 9.5 ± 3.3 cmH2O. The “LPP Increase” value is −2.0 ± 2.5 cmH2O in data set [8] (setting [15]) and −2.2 ± 2.9 cmH2O in data set [8] (setting [16]). In addition, the “LPP Pre” value in data set [8] (setting [9]) came out at 34.1 ± 3.2 cmH2O; in data set [8] (setting [10]), 41.0 ± 3.6 cmH2O; in data set [8] (setting [11]) it was 44.4 ± 2.5 cmH2O; in data set [8] (setting [12]), 45.8 ± 4.8 cmH2O; in data set [8] (setting [13]), 40.4 ± 3.0 cmH2O; in data set [8] (setting [14]), 50.4 ± 4.4 cmH2O. Further, the “LPP Pre” value is recorded as 46.0 ± 9.6 cmH2O in data set [8] (setting [15]) and 42.9 ± 3.8 cmH2O in data set [8] (setting [16]).
